Measurements taken from patent publication US20050107353A1, “Methods of treating lower urinary tract disorders using losigamone” (Dynogen Pharmaceuticals, Inc., priority 2003, published 2005).
Entries after “also recorded” stand apart in the source; their conditions may differ. Where a name gives a salt, the structure may show the parent alone.

Legend:
[1] = biological target: T1, TTX-R sodium currents in bladder afferent neurons (Rattus norvegicus, UniProt Q62968); assay: Bladder sensory neuron sodium channel current model: whole cell patch-clamp of TTX-R sodium currents; assay type: cell-based; settings: for concentration-response effect on TTX-R sodium current amplitude: bath application, cumulative concentrations, bladder afferent neurons
T1 construct: Whole cell patch-clamp recordings were obtained from dye-labeled DRG neurons; endogenous in cells; host or cells: primary dissociated L6/S1 dorsal root ganglion neurons of Sprague-Dawley rats, dye-labelled bladder afferents
T1 sequence (Q62968 whole entry): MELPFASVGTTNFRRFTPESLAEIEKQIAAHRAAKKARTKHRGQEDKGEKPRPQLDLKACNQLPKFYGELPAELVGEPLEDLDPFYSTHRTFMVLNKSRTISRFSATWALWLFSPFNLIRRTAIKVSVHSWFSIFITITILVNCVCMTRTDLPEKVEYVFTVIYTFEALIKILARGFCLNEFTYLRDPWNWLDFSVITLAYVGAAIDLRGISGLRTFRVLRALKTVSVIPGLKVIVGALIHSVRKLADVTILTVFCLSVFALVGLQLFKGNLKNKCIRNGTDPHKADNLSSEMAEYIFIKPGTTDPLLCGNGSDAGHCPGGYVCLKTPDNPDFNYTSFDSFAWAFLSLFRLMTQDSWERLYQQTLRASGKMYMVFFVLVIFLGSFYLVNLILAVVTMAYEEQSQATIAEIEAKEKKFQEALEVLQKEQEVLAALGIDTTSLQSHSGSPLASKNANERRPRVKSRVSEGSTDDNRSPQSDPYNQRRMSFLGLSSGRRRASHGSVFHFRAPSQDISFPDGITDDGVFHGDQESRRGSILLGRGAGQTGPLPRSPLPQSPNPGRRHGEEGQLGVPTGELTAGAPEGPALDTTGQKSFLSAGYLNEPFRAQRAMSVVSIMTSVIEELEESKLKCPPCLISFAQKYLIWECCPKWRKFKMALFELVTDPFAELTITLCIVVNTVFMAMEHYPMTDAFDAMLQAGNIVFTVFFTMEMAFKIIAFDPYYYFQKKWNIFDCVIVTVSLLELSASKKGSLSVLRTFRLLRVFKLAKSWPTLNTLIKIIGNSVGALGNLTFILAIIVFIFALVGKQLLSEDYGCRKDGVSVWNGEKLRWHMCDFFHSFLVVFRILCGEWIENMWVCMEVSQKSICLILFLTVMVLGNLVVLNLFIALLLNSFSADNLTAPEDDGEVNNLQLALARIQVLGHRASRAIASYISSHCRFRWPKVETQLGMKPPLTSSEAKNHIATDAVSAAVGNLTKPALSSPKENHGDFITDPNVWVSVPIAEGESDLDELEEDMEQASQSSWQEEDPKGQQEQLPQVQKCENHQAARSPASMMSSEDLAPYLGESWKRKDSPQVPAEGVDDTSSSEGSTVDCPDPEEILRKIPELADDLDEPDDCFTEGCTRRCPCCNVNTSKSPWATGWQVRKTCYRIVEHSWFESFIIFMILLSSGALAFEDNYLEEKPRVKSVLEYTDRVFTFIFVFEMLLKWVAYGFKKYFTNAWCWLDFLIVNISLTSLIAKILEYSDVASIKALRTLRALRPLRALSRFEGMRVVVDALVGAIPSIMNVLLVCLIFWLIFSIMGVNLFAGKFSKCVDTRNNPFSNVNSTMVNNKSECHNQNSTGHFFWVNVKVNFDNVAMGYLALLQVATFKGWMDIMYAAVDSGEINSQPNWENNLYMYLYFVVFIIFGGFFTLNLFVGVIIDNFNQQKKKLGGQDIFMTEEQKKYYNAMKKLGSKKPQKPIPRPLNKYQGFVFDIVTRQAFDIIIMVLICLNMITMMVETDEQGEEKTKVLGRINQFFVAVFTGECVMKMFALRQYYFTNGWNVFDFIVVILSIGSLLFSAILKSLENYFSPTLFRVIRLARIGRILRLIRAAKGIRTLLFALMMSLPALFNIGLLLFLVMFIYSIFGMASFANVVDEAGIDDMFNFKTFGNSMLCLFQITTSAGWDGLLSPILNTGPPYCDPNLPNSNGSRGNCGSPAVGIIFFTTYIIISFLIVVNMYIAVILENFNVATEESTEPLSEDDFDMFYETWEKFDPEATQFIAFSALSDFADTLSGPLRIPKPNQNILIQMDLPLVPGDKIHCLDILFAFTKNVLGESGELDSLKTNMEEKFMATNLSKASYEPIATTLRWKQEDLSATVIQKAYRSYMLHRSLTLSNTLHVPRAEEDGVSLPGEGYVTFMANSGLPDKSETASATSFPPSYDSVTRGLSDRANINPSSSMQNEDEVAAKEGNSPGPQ
Method: Labeling of bladder afferent neurons: Adult female Sprague-Dawley rats (150-300 g) were deeply anesthetized with pentobarbital anesthesia and placed on isoflurane maintenance anesthesia. A ventral midline incision was made through the abdominal skin and musculature, exposing the urinary bladder. Five injections of the fluorescent dye Di-I (5 μl each of 25 mg/ml Di-I in DMSO) or Fast Blue (4% w/v) were made into the bladder smooth muscle wall to label primary afferent fibers innervating the bladder. The area was rinsed with sterile saline to eliminate nonspecific spread of dye, and the incision was closed. Rats recovered for 5-12 days to allow for transport of fluorescent dye from distal terminals to the cell somata of dorsal root ganglion (DRG) neurons. Labeled neurons were identified in vitro using fluorescence optics.
Neuronal cultures: Di-I injected rats were euthanized with pentobarbital anesthesia. Lumbar (L6) and sacral (S1) DRG were dissected from the vertebral column and placed in Dulbecco's modified Eagles medium (DMEM) containing 0.3% collagenase B for 60 min at 37° C. The cell solution was exchanged for a 0.25% trypsin in calcium/magnesium-free Dulbecco's phosphate-buffered saline solution, and further digested for 30 min at 37° C. Following a wash in fresh DMEM, ganglia were dissociated by a series of triturations using fire-polished Pasteur pipettes. DRG cells were plated on polylysine-treated glass coverslips. Cells were plated at a density of 0.5 DRG per coverslip in 1 ml DMEM supplemented with 10% FBS, NGF, and 100 U/ml penicillin/streptomycin. All experimental procedures involving rats were conducted under a protocol approved by an Institutional Animal Care and Use Committee. Small variations in the concentrations of reagents, incubation times, etc. may occur and are expected to give similar results.
In most experiments, neurons were incubated in culture medium containing the FITC-labeled lectin BSI-B4 (IB4, […]) at 37° C. for 5 min before recording. The coverslip was washed with extracellular recording solution for 1 min before being placed in a recording chamber mounted on the stage of an inverted microscope equipped with fluorescence optics.
Electrophysiology: Electrophysiologic evaluation of neurons occurred within 4-48 h of plating. Whole cell patch-clamp recordings were obtained from dye-labeled DRG neurons. Recordings were obtained in an extracellular recording solution (pH 7.4, 295-320 mosM) consisting of (in mM) 140 NaCl, 3 KCl, 1 CaCl2, 1 MgCl2, 0.1 CdCl2, 10 HEPES, and 10 glucose. Patch-clamp electrodes were pulled from borosilicate glass and fire polished to 2-6 MOhm tip resistance. The internal pipette recording solution (pH 7.3, 290-300 mosM) consisted of (in mM) 140 CsCl, 10 NaCl, 1 EGTA, and 10 HEPES. Tetrodotoxin (TTX, 0.3 uM) was included in the extracellular solution to block TTX-sensitive sodium currents. Variations in the concentrations and types of reagents used for solutions may occur and are expected to give similar results.
Sodium currents were recorded from DRG neurons using standard electrophysiologic protocols. Neurons were typically voltage-clamped at −50 mV. Currents were recorded using a patch-clamp amplifier and digitized at 3-10 kHz for acquisition. Neuronal input resistance and membrane capacitance were determined from the amplitude and kinetics of the current response to a voltage pulse from a holding potential of −50 mV. Series resistance was compensated 75-95% for all recordings. Leak currents were cancelled online using a standard P/4 protocol. Depolarizing steps from −90, −70, or −50 mV to 0 mV were delivered every 5 or 30 sec during drug application to determine the effects of drugs on sodium currents. For all cell types, baseline responses were recorded for a minimum of 10 min to ensure that the kinetics of the response was stable. A wash out or recovery period usually followed the drug application period. […]

[2] = test system: acetic acid-induced reduction of bladder capacity; assay: Dilute acetic acid model: bladder capacity by filling cystometry during continuous intravesical acetic acid irritation; assay type: in vivo, rat; settings: for post-test: reversal of bladder capacity reduction: rats; for effect on bladder capacity (reversal of acetic acid-induced reduction): increasing doses, rats during continuous irritation
Excerpt: The objective of the current study was to determine the effect of TTX-R sodium channel modulators or use dependent sodium channel modulators on the ability to reverse the reduction in bladder capacity seen following continuous infusion of dilute acetic acid, a commonly used model of lower urinary tract disorders including overactive bladder.
Animal Preparation: Female rats (250-275 g BW) were anesthetized with urethane (1.2 g/kg) and a saline-filled catheter (PE-50) was inserted into either the jugular vein for intravenous (i.v.; saline vehicle) or the proximal duodenum for intraduodenal (i.d.; distilled water or 10% Tween 80 in saline as vehicle) drug administration. Via a midline lower abdominal incision, a flared-tipped PE 50 catheter was inserted into the bladder dome for bladder filling and pressure recording and secured by ligation. The abdominal cavity was moistened with saline and closed by covering with a thin plastic sheet in order to maintain access to the bladder for emptying purposes. Fine silver or stainless steel wire electrodes were inserted into the external urethral sphincter (EUS) percutaneously for electromyography (EMG).
Experimental Design: Saline was continuously infused at a rate of 0.055 ml/min via the bladder filling catheter for ≧60 minutes to obtain a baseline of lower urinary tract activity (continuous cystometry; CMG). Following the control period, a 0.25% acetic acid solution in saline was infused into the bladder at the same flow rate to induce bladder irritation. Following 30 minutes of AA infusion, 3 vehicle injections were made at 20 minute intervals to determine vehicle effects, if any. Subsequently, increasing doses (2-5) of Na^+ channel blocking compound were administered intravenously or intraduodenaly at half-log order increments at 30 or 60 minute intervals in order to construct a cumulative dose-response relationship. At the end of the control saline cystometry period, the third vehicle, and 20-50 minutes following each subsequent treatment, the infusion pump was stopped, the bladder was emptied by fluid withdrawal via the infusion catheter and a single filling cystometrogram was performed at the same flow rate in order to determine changes in bladder capacity caused by the irritation protocol and subsequent intravenous or intraduodenal drug administration.
Data were analyzed by non-parametric ANOVA for repeated measures (Friedman Test) with Dunn's Multiple Comparison test. All comparisons were made from the last vehicle measurement (AA/Veh 3) or the lowest dose of drug. P<0.050 was considered significant.

In the case of `Nc1c(Br)cc(Br)cc1CNC1CCC(O)CC1` (stereo not shown) [Ambroxol], the “concentration-response effect on TTX-R sodium current amplitude” value [1] is reported as “concentration-dependent reversible block; also recorded: reversible, concentration-dependent reduction in current amplitude”, the IC50 ([1]; three bladder afferent neurons, 2-3 minute application, TTX 300 nM present, read-out: estimated IC50 for block of TTX-R sodium currents) is reported as about 15 µM and the “post-test: reversal of bladder capacity reduction” value ([2]; 300 mg/kg dose, intraduodenal) is reported as “statistically significant reversal of bladder capacity reduction”. For the same molecule, the “effect on bladder capacity (reversal of acetic acid-induced reduction)” value ([2]; intraduodenal) was “capable of partially reversing the reduction in bladder capacity caused by acetic acid in a dose-dependent fashion; also recorded: dose-dependent and statistically significant reversal” and the “effect on bladder capacity (reversal of acetic acid-induced reduction)” value ([2]; intraduodenal, listed as ambroxol) was “dose-dependent, statistically significant increases in bladder capacity”.

With `COC1=CC(=O)O[C@@H]1[C@@H](O)c1ccccc1Cl` (relative stereo) [Losigamone, (5R*)-5-[(alphaS*)-o-Chloro-alpha-hydroxybenzyl]-4-methoxy-2(5H)-furanone] the “post-test: reversal of bladder capacity reduction” value ([2]; 300 mg/kg dose, intraduodenal) was “statistically significant reversal of bladder capacity reduction”, the “effect on bladder capacity (reversal of acetic acid-induced reduction)” value ([2]; intraduodenal) was “capable of partially reversing the reduction in bladder capacity caused by acetic acid in a dose-dependent fashion; also recorded: dose-dependent and statistically significant reversal” and the “effect on bladder capacity (reversal of acetic acid-induced reduction)” value ([2]; intraduodenal, listed as losigamone) was “dose-dependent, statistically significant increases in bladder capacity”.

`CC1(C)O[C@@H]2[C@@H](CO[C@@]3(COS(N)(=O)=O)OC(C)(C)O[C@@H]23)O1` [Topiramate, 2,3:4,5-Bis-O-(1-methylethylidene)-1-O-sulfamoyl-beta-D-fructopyranose] was tested, and the “effect on inward TTX-R sodium current” value ([1]; 30 μM bath application, 7 minute, holding potential −70 mV, pulse to +10 mV) was “blocked the current”, the “post-test: reversal of bladder capacity reduction” value ([2]; 100 mg/kg dose, intraduodenal) was “statistically significant reversal of bladder capacity reduction” and the “effect on bladder capacity (reversal of acetic acid-induced reduction)” value ([2]; intraduodenal) was “capable of partially reversing the reduction in bladder capacity caused by acetic acid in a dose-dependent fashion; also recorded: dose-dependent and statistically significant reversal”. For the same molecule, the “effect on bladder capacity (reversal of acetic acid-induced reduction)” value ([2]; intraduodenal, listed as topiramate) was “dose-dependent, statistically significant increases in bladder capacity”.

For `Cc1cccc(C)c1OCC(C)N` (stereo not shown) [Mexiletine, 1-(2,6-Dimethylphenoxy)-2-propanamine hydrochloride], the “post-test: reversal of bladder capacity reduction” value ([2]; 30 mg/kg dose, intraduodenal) was “statistically significant reversal of bladder capacity reduction”, the “effect on bladder capacity (reversal of acetic acid-induced reduction)” value ([2]; intraduodenal, hydrochloride) was “capable of partially reversing the reduction in bladder capacity caused by acetic acid in a dose-dependent fashion; also recorded: dose-dependent and statistically significant reversal” and the “effect on bladder capacity (reversal of acetic acid-induced reduction)” value ([2]; intraduodenal, listed as mexilitine, hydrochloride) was “dose-dependent, statistically significant increases in bladder capacity”.

`CN1CCN(c2ncc(-c3cc(Cl)cc(Cl)c3Cl)c(N)n2)CC1` [Sipatrigine, 4-Amino-2-(4-methylpiperazin-1-yl)-5-(2,3,5-trichlorophenyl)pyrimidine] was tested, and the “effect on inward TTX-R sodium current” value ([1]; 100 μM bath application, labeled bladder afferent neuron) was “blocked the current”, the “concentration-response effect on TTX-R sodium current amplitude” value [1] was “concentration-dependent reduction in current amplitude” and the “post-test: reversal of bladder capacity reduction” value ([2]; 30 mg/kg dose, intraduodenal) was “statistically significant reversal of bladder capacity reduction”. For the same molecule, the “post-test: reversal of bladder capacity reduction” value ([2]; 100 mg/kg dose, intraduodenal) was “statistically significant reversal of bladder capacity reduction”, the “effect on bladder capacity (reversal of acetic acid-induced reduction)” value ([2]; intraduodenal) was “capable of partially reversing the reduction in bladder capacity caused by acetic acid in a dose-dependent fashion; also recorded: dose-dependent and statistically significant reversal” and the “effect on bladder capacity (reversal of acetic acid-induced reduction)” value ([2]; intraduodenal, listed as sipatrigine) was “dose-dependent, statistically significant increases in bladder capacity”.

For `NC(=O)N1c2ccccc2C=Cc2ccccc21` [Carbamazepine], the “post-test: reversal of bladder capacity reduction” value ([2]; 100 mg/kg dose, intraduodenal) was “statistically significant reversal of bladder capacity reduction”, the “effect on bladder capacity (reversal of acetic acid-induced reduction)” value ([2]; intraduodenal) was “capable of partially reversing the reduction in bladder capacity caused by acetic acid in a dose-dependent fashion; also recorded: dose-dependent and statistically significant reversal” and the “effect on bladder capacity (reversal of acetic acid-induced reduction)” value ([2]; intraduodenal, listed as carbamazepine) was “dose-dependent, statistically significant increases in bladder capacity”.

In the case of `CCOC(=O)C1=C[C@]2(CC)CCCN3CCc4c(n1c1ccccc41)[C@@H]32` [Vinpocetine], the “effect on bladder capacity (reversal of acetic acid-induced reduction)” value ([2]; intraduodenal) is reported as “not capable of significantly reversing the reduction in bladder capacity caused by acetic acid; also recorded: Neither Vinpocetine (FIG. 9) nor intravenous Tolperisone (FIG. 10) demonstrated statistically significant effects on bladder capacity” and the “effect on bladder capacity (reversal of acetic acid-induced reduction)” value ([2]; intraduodenal, listed as vinpocetine) is reported as “neither intraduodenal vinpocetine (n=6; 3-100 mg/kg) nor intravenous tolperisone (n=4; 3-10 mg/kg) demonstrated statistically significant effects on bladder capacity”.

With `Cc1ccc(C(=O)C(C)CN2CCCCC2)cc1` (stereo not shown) [Tolperisone] the “effect on bladder capacity (reversal of acetic acid-induced reduction)” value ([2]; intravenous) was “Neither Vinpocetine (FIG. 9) nor intravenous Tolperisone (FIG. 10) demonstrated statistically significant effects on bladder capacity; also recorded: not capable of significantly reversing the reduction in bladder capacity caused by acetic acid” and the “effect on bladder capacity (reversal of acetic acid-induced reduction)” value ([2]; intravenous, listed as tolperisone) was “neither intraduodenal vinpocetine (n=6; 3-100 mg/kg) nor intravenous tolperisone (n=4; 3-10 mg/kg) demonstrated statistically significant effects on bladder capacity”.
